In patent publication US9688695B2, “Imidazothiadiazole and imidazopyrazine derivatives as protease activated receptor 4 (PAR4) inhibitors for treating platelet aggregation” (BRISTOL-MYERS SQUIBB COMPANY, priority 2012, dated 2017):

biological target: PAR4 (Homo sapiens (Human), UniProt Q96RI0); assay: FLIPR assay in PAR4-expressing HEK293 cells (PAR4 antagonist activity, calcium mobilization); format: cell-based; details: H-Ala-Phe(4-F)-Pro-Gly-Trp-Leu-Val-Lys-Asn-Gly-NH2-induced calcium mobilization
Sequence (Q96RI0 18-385): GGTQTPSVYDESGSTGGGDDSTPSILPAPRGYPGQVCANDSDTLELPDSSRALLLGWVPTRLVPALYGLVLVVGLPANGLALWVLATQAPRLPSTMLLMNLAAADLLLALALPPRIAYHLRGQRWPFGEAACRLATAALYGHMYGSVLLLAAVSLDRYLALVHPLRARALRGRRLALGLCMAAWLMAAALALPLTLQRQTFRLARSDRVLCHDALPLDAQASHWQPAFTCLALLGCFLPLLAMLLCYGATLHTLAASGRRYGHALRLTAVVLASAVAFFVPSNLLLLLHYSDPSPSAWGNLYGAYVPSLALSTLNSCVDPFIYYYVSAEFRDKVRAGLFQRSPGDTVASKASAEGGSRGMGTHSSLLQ
Excerpt: The FLIPR assay is an exemplary in vitro assay for measuring the activity of the PAR4 antagonists of the present invention. In this assay, intracellular calcium mobilization is induced in PAR4 expressing cells by a PAR4 agonist and calcium mobilization is monitored. See, e.g., Example A.
HEK293 cells stably expressing PAR4 were generated by a standard method of transfection of human […] cDNA expression vector or by RAGE technology from Athersys Inc. (Cleveland, Ohio) and selected based on PAR4 protein expression of mRNA expression. […] These cells express endogenous PAR1 and can elicit calcium signal upon stimulation with PAR1 agonist peptide.
Counter screens for agonist activity and PAR1 antagonist activity were also performed. Briefly, HEK293 EBNA PAR4 clone 20664.1J cells were plated 24 hrs. prior to experiment in 384 well, Poly-D-Lysine coated, black, clear bottom plates (Greiner Bio-One, Monroe, N.C.). Cells were plated at 20,000 cells/well in […] growth medium and incubated at 37° C. with 5% CO2 overnight. At time of assay, media was replaced with 40 μl 1× Hank's Buffered Saline Solution (HBSS) (with 10 mM HEPES) and 20 μl test compound also diluted in 1×HBSS buffer was added at various concentrations and 0.67% DMSO final concentration on the FDSS for agonist measurement. The cells were then incubated for 30 minutes at room temperature followed by addition of 20 μl of agonist peptide for antagonist measurement on the FDSS.
As indicated above, the FLIPR assay, an in vitro assay, measures the PAR4 antagonist activity of compounds tested as described in Example A. The PRP assay, an in vitro assay, measures the PAR4 antagonist assay of the compounds tested in the presence of plasma proteins and thrombin agonist as described in Example C.

EC50	Compound
580 pM	CNC(=O)c1ccc(-c2nc(COc3cc(F)cc4oc(-c5cn6nc(OC)sc6n5)cc34)c(C)s2)cc1 [Example 186, 4-(4-(((6-Fluoro-2-(2-methoxyimidazo[2,1-b][1,3,4]thiadiazol-6-yl)benzofuran-4-yl)oxy)methyl)-5-methylthiazol-2-yl)-N-methylbenzamide]
2800 pM	COc1cc(OCc2csc(-c3ccc(Cl)nc3)n2)c2cc(-c3cn4nc(C)ccc4n3)oc2c1 [Example 233]
1200 pM	COc1cc(OCc2csc(C3(F)CCCCC3)n2)c2cc(-c3cn4nc(OC)sc4n3)oc2c1 [Example 134, 6-(4-((2-(1-Fluorocyclohexyl)thiazol-4-yl)methoxy)-6-methoxybenzofuran-2-yl)-2-methoxyimidazo[2,1-b][1,3,4]thiadiazole]
1300 pM	COc1cc(OCc2csc(C3(c4ccc(C)cc4)CCOC3)n2)c2cc(-c3cn4nc(OC)sc4n3)oc2c1 (stereo not drawn) [Example 164, 2-Methoxy-6-(6-methoxy-4-((2-(3-(p-tolyl)tetrahydrofuran-3-yl)thiazol-4-yl)methoxy)benzofuran-2-yl)imidazo[2,1-b][1,3,4]thiadiazole]
310 pM	COc1cc(OCc2nc(-c3ccnc(F)c3)sc2C)c2cc(-c3cn4nc(C)ccc4n3)oc2c1 [Example 227]
820 pM	COc1cc(OCc2csc(C3(c4ccc(Cl)cc4)CCOC3)n2)c2cc(-c3cn4nc(OC)sc4n3)oc2c1 (stereo not drawn) [Example 163, 6-(4-((2-(3-(4-Chlorophenyl)tetrahydrofuran-3-yl)thiazol-4-yl)methoxy)-6-methoxybenzofuran-2-yl)-2-methoxyimidazo[2,1-b][1,3,4]thiadiazole]
450 pM	COc1cc(OCc2csc(C3(OC)CCOCC3)n2)c2cc(-c3cn4nc(OC)sc4n3)oc2c1 [Example 120, 2-Methoxy-6-(6-methoxy-4-((2-(4-methoxytetrahydro-2H-pyran-4-yl)thiazol-4-yl)methoxy)benzofuran-2-yl)imidazo[2,1-b][1,3,4]thiadiazole]
1100 pM	COc1cc(OCc2csc(C3CCCCC3)n2)c2cc(-c3cn4nc(OC)sc4n3)oc2c1 [Example 20]
470 pM	CCN(CCC#N)C(=O)c1ccc(-c2nc(COc3cc(F)cc4oc(-c5cn6nc(OC)sc6n5)cc34)cs2)cc1 [Example 180, N-(2-Cyanoethyl)-N-ethyl-4-(4-(((6-fluoro-2-(2-methoxyimidazo[2,1-b][1,3,4]thiadiazol-6-yl)benzofuran-4-yl)oxy)methyl)thiazol-2-yl)benzamide]
630 pM	COc1cc(OCc2nc(N3CCOCC3)oc2C)c2cc(-c3cn4nc(OC)sc4n3)oc2c1 [Example 97, 4-(4-(((6-Methoxy-2-(2-methoxyimidazo[2,1-b][1,3,4]thiadiazol-6-yl)benzofuran-4-yl)oxy)methyl)-5-methyloxazol-2-yl)morpholine]
3600 pM	COc1cc(OCc2csc(C3CCOCC3)n2)c2cc(-c3cn4nc(C)ccc4n3)oc2c1 [Example 213]
650 pM	COc1cc(OCc2csc(-c3cccc(O)c3)n2)c2cc(-c3cn4nc(C)ccc4n3)oc2c1 [Example 222]
500 pM	COc1cc(OCc2csc(C3(O)CCOC3)n2)c2cc(-c3cn4nc(OC)sc4n3)oc2c1 (stereo not drawn) [Example 123, 3-(4-(((6-Methoxy-2-(2-methoxyimidazo[2,1-b][1,3,4]thiadiazol-6-yl)benzofuran-4-yl)oxy)methyl)thiazol-2-yl)tetrahydrofuran-3-ol]
280 pM	COc1cc(OCc2csc(C3CCOc4ccccc43)n2)c2cc(-c3cn4nc(OC)sc4n3)oc2c1 (stereo not drawn) [Example 168, 6-(4-((2-(Chroman-4-yl)thiazol-4-yl)methoxy)-6-methoxybenzofuran-2-yl)-2-methoxyimidazo[2,1-b][1,3,4]thiadiazole]
260 pM	COc1cc(OCc2csc(C3(C)CCOCC3)n2)c2cc(-c3cn4nc(OC)sc4n3)oc2c1 [Example 167, 2-Methoxy-6-(6-methoxy-4-((2-(4-methyltetrahydro-2H-pyran-4-yl)thiazol-4-yl)methoxy)benzofuran-2-yl)imidazo[2,1-b][1,3,4]thiadiazole]
3300 pM	COc1cc(OCc2csc(N3CCOCC3)n2)c2cc(-c3cn4nc(C)ccc4n3)oc2c1 [Example 215]
1100 pM	COc1cc(OCc2csc(-c3cccc(C(F)(F)F)c3)n2)c2cc(-c3cn4nc(OC)sc4n3)oc2c1 [Example 17]
720 pM	COc1cc(OCc2csc(C3CCSCC3)n2)c2cc(-c3cn4nc(C)ccc4n3)oc2c1 [Example 204, 4-(((6-Methoxy-2-(6-methylimidazo[1,2-b]pyridazin-2-yl)benzofuran-4-yl)oxy)methyl)-2-(tetrahydro-2H-thiopyran-4-yl)thiazole]
420 pM	COc1cc(OCc2csc(-c3ccc(C(=O)N(C)CCO)cc3)n2)c2cc(-c3cn4nc(OC)sc4n3)oc2c1 [Example 300]
380 pM	COc1nn2cc(-c3cc4c(OCc5csc(-c6ccc(C(=O)N(C)CC#N)cc6)n5)cc(F)cc4o3)nc2s1 [Example 184, N-(Cyanomethyl)-4-(4-(((6-fluoro-2-(2-methoxyimidazo[2,1-b][1,3,4]thiadiazol-6-yl)benzofuran-4-yl)oxy)methyl)thiazol-2-yl)-N-methylbenzamide]
670 pM	CCC(O)(CC)c1nc(COc2cc(OC)cc3oc(-c4cn5nc(OC)sc5n4)cc23)cs1 [Example 140]
1200 pM	COc1cc(OCc2csc(C3(c4ccc(Cl)cc4)CCOC3)n2)c2cc(-c3cn4nc(C)ccc4n3)oc2c1 (stereo not drawn) [Example 241]
870 pM	C=C(c1cncnc1)c1nc(COc2cc(OC)cc3oc(-c4cn5nc(OC)sc5n4)cc23)cs1 [Example 178, 2-Methoxy-6-(6-methoxy-4-((2-(1-(pyrimidin-5-yl)vinyl)thiazol-4-yl)methoxy)benzofuran-2-yl)imidazo[2,1-b][1,3,4]thiadiazole]
2900 pM	COc1cc(OCc2nc(N3CCOCC3)sc2C=O)c2cc(-c3cn4nc(OC)sc4n3)oc2c1 [Example 88, 4-(((6-Methoxy-2-(2-methoxyimidazo[2,1-b][1,3,4]thiadiazol-6-yl)benzofuran-4-yl)oxy)methyl)-2-morpholinothiazole-5-carbaldehyde]
1600 pM	COc1cc(OCc2csc(-c3ccc(Cl)cc3)n2)c2cc(-c3cn4nc(OC)sc4n3)oc2c1 [Example 27]
340 pM	COc1cc(OCc2csc(C3(F)CCOCC3)n2)c2cc(-c3cn4nc([C@H](C)F)sc4n3)oc2c1 [Example 197, (S)-2-(1-Fluoroethyl)-6-(4-((2-(4-fluorotetrahydro-2H-pyran-4-yl)thiazol-4-yl)methoxy)-6-methoxybenzofuran-2-yl)imidazo[2,1-b][1,3,4]thiadiazole]
970 pM	COc1cc(OCc2nc(N3CCOCC3)sc2Cl)c2cc(-c3cn4nc(OC)sc4n3)oc2c1 [Example 84]
260 pM	COc1cc(OCc2csc(C(O)(C3CC3)C3CC3)n2)c2cc(-c3cn4nc(OC)sc4n3)oc2c1 [Example 144]
5800 pM	COc1cc(OCc2csc(N3CCN(Cc4cccnc4)CC3)n2)c2cc(-c3cn4nc(C)ccc4n3)oc2c1 [Example 270]
430 pM	COc1cc(OCc2csc(C3CCN(S(=O)(=O)c4ccccc4)CC3)n2)c2cc(-c3cn4nc(OC)sc4n3)oc2c1 [Example 113, 2-Methoxy-6-(6-methoxy-4-((2-(1-(phenylsulfonyl)piperidin-4-yl)thiazol-4-yl)methoxy)benzofuran-2-yl)imidazo[2,1-b][1,3,4]thiadiazole]
